Series [1] deals with Oocyte. Kind of series: Inhibition of human alpha-9/rat alpha-10 nACHR expressed in Xenopus oocytes assessed as inhibition of acetylcholine-induced current at 50 nM by voltage clamp assay. The format is cell-based.
Series [2] in a line: Inhibition of GABA-B receptor-mediated high voltage-activated Ca2+ channel current in Wistar rat DRG neurons by whole-cell patch clamp assay. Conditions: DRG neuron.
A short description of series [3]: Inhibition of human alpha-9/rat alpha-10 nAChR expressed in Xenopus oocytes assessed as inhibition of acetylcholine-induced current by voltage clamp assay. The following applies: Oocyte. The series is classed as cell-based.
For series [4], the system named is Oocyte. Kind of series: Inhibition of human alpha-9/rat alpha-10 nACHR expressed in Xenopus oocytes assessed as inhibition of acetylcholine-induced current by voltage clamp assay relative to RgIA. Conditions: dose or concentration not given here. The format is cell-based.
Series [5] in a line: Metabolic stability in human AB positive serum assessed as compound degradation at 20 uM at 5 hrs. The series is classed as ADME, cell-free. Conditions: read-out: Drug metabolism.

Bridge positions count the residues as written; N and C are the ends. Peptide text beside a SMILES is read from it.

The inhibition is the drop in the measured response relative to a control, in per cent. The IC50 is the concentration that gives 50% inhibition. On to `N=C(N)NCCC[C@H](NC(=O)[C@@H]1CSSC[C@@H]2NC(=O)[C@@H](NC(=O)CN)CSSC[C@H](NC(=O)[C@H](CCCNC(=N)N)NC(=O)[C@@H]3CCCN3C(=O)[C@H](CC(=O)O)NC(=O)[C@H](CO)NC2=O)C(=O)N[C@@H](CCCNC(=N)N)C(=O)N[C@@H](Cc2ccc(O)cc2)C(=O)N[C@@H](CCCNC(=N)N)C(=O)N1)C(=O)O`, for which, in the series with Oocyte [1], the inhibition was determined as 60%. The half-inhibitory concentration (IC50) came out at 40.7 nM in series [2] and 40 nM in series [3].
`C[C@H](NC(=O)[C@H](C)NC(=O)CNC(=O)[C@@H]1CSSC[C@H](NC(=O)CN)C(=O)N[C@H]2CSSC[C@H](NC(=O)[C@H](CCCNC(=N)N)NC(=O)[C@@H]3CCCN3C(=O)[C@H](CC(=O)O)NC(=O)[C@H](CO)NC2=O)C(=O)N[C@@H](CCCNC(=N)N)C(=O)N[C@@H](Cc2ccc(O)cc2)C(=O)N[C@@H](CCCNC(=N)N)C(=O)N1)C(=O)O` (H-GCCSDPRCRYRCGAA-OH; disulfide 2-12, 3-8) returned an IC50 in series [2] of 82.5 nM. The inhibition in the series on Oocyte [4] came out at 8%.
For `C[C@H](NC(=O)CNC(=O)[C@@H]1CSSC[C@H](NC(=O)CN)C(=O)N[C@H]2CSSC[C@H](NC(=O)[C@H](CCCNC(=N)N)NC(=O)[C@@H]3CCCN3C(=O)[C@H](CC(=O)O)NC(=O)[C@H](CO)NC2=O)C(=O)N[C@@H](CCCNC(=N)N)C(=O)N[C@@H](Cc2ccc(O)cc2)C(=O)N[C@@H](CCCNC(=N)N)C(=O)N1)C(=O)N[C@@H](C)C(=O)NCC(=O)O` (H-GCCSDPRCRYRCGAAG-OH; disulfide 2-12, 3-8), half-maximal inhibition in series [2] (IC50) was put at 70.1 nM. Further, the inhibition with Oocyte [4] was 12%.
The corresponding values for `C[C@H](NC(=O)CNC(=O)[C@@H]1CSSC[C@H](NC(=O)CN)C(=O)N[C@H]2CSSC[C@H](NC(=O)[C@H](CCCNC(=N)N)NC(=O)[C@@H]3CCCN3C(=O)[C@H](CC(=O)O)NC(=O)[C@H](CO)NC2=O)C(=O)N[C@@H](CCCNC(=N)N)C(=O)N[C@@H](Cc2ccc(O)cc2)C(=O)N[C@@H](CCCNC(=N)N)C(=O)N1)C(=O)N[C@@H](C)C(=O)NCC(=O)NCC(=O)O` (H-GCCSDPRCRYRCGAAGG-OH; disulfide 2-12, 3-8) are 11.5 nM and 25%.
As to `N=C(N)NCCC[C@@H]1NC(=O)[C@H](Cc2ccc(O)cc2)NC(=O)[C@H](CCCNC(=N)N)NC(=O)[C@@H]2CSSC[C@H](NC(=O)CN)C(=O)N[C@@H](CSSC[C@@H](C(=O)O)NC1=O)C(=O)N[C@@H](CO)C(=O)N[C@@H](CC(=O)O)C(=O)N1CCC[C@H]1C(=O)N[C@@H](CCCNC(=N)N)C(=O)N2` (H-GCCSDPRCRYRC-OH; disulfide 2-8, 3-12), the inhibition in the series with Oocyte [1] was determined as 55%. In addition, the IC50 worked out at 4.4 nM in series [2] and 34 nM in series [3]. Also, in series [5], the metabolised at 5 h, 20 µM turned out to be 92%.
As for `C[C@H](NC(=O)CNC(=O)[C@H](C)NC(=O)[C@H](C)NC(=O)CNC(=O)CNC(=O)[C@@H]1CSSC[C@H](NC(=O)CN)C(=O)N[C@H]2CSSC[C@H](NC(=O)[C@H](CCCNC(=N)N)NC(=O)[C@@H]3CCCN3C(=O)[C@H](CC(=O)O)NC(=O)[C@H](CO)NC2=O)C(=O)N[C@@H](CCCNC(=N)N)C(=O)N[C@@H](Cc2ccc(O)cc2)C(=O)N[C@@H](CCCNC(=N)N)C(=O)N1)C(=O)NCC(=O)O` (H-GCCSDPRCRYRCGGAAGAG-OH; disulfide 2-12, 3-8), the inhibition in the series on Oocyte [1] came to 60%. The figures for the 50% inhibitory concentration (IC50) in series [2] and in series [3] were 36.3 nM and 19 nM, respectively. In addition, the metabolised at 5 h, 20 µM in series [5] came to 54%.
As to `C[C@H](NC(=O)CNC(=O)CNC(=O)[C@@H]1CSSC[C@H](NC(=O)CN)C(=O)N[C@H]2CSSC[C@H](NC(=O)[C@H](CCCNC(=N)N)NC(=O)[C@@H]3CCCN3C(=O)[C@H](CC(=O)O)NC(=O)[C@H](CO)NC2=O)C(=O)N[C@@H](CCCNC(=N)N)C(=O)N[C@@H](Cc2ccc(O)cc2)C(=O)N[C@@H](CCCNC(=N)N)C(=O)N1)C(=O)N[C@@H](C)C(=O)NCC(=O)NCC(=O)O` (H-GCCSDPRCRYRCGGAAGG-OH; disulfide 2-12, 3-8), the values for the IC50 in series [2] and in series [3] were 4.3 nM and above 50 nM, respectively. The metabolised at 5 h, 20 µM in series [5] amounted to 43%. In addition, the inhibition in the series with Oocyte [4] turned out to be 39%.

The values are drawn from ChEMBL document CHEMBL1833824, “Effects of cyclization on stability, structure, and activity of α-conotoxin RgIA at the α9α10 nicotinic acetylcholine receptor and GABA(B) receptor” (J Med Chem, 2011).
